Experimental data from ChEMBL document CHEMBL1201862, “PubChem BioAssay data set” (2004).
The source made the active and inactive calls. Cut-off read from the data, not from the text of the source: actives have a measured IC50 and inactives only a lower limit.

These molecules were tested against Envelope glycoprotein gp160 (Human immunodeficiency virus 1, UniProt Q6QLK5) (assay: inhibitors of HIV fusion peptide binding, primary screen, biochemical, uHTS, fluorescence dequenching (AID 1986)).
Chain of Envelope glycoprotein gp160 (Q6QLK5 whole entry, the tested form may be a part): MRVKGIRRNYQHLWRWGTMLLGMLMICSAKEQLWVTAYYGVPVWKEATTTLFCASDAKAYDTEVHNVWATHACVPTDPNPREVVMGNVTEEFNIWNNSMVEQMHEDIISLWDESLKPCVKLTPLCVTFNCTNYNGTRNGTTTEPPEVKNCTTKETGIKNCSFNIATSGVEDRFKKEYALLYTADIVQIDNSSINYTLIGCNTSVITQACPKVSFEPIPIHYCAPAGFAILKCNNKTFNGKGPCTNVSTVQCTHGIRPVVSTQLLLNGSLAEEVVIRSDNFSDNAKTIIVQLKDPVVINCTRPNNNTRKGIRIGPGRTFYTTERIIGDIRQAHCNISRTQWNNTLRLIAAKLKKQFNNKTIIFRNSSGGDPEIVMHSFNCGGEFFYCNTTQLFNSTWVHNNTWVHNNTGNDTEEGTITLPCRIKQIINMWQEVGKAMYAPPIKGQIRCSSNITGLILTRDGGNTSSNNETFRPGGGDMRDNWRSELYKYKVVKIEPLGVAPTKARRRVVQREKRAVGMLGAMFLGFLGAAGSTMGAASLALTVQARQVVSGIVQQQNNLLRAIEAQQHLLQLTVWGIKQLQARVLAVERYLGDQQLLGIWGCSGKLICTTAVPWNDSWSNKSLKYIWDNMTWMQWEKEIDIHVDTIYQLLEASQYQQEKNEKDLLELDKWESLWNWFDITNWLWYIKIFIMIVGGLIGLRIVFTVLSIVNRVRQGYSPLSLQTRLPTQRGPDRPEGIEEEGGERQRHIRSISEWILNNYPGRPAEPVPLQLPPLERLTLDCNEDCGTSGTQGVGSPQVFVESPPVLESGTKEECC
In the case of `O=c1/c(=C\c2cc([N+](=O)[O-])cc([N+](=O)[O-])c2O)sc2nc3ccccc3n12`, the IC50 is reported as 6.01 µM (active). In the case of `Cc1ccc(F)c(NC(=O)/C(C#N)=C(\O)c2ccc(C(C)(C)C)cc2)c1`, the IC50 is reported as 19.6 µM (active). For `O=C(CSc1nc2ccccc2c(=O)n1Cc1ccccc1)Nc1ccc(Br)cc1C(=O)O`, the IC50 was 14.4 µM (active).
